According to patent US20260115201A1, “POTENTIAL THERAPEUTICS FOR FIBROSIS BY BLOCKING THE INCREASE OF A KEY ENZYME” (THE TEXAS A&M UNIVERSITY SYSTEM, priority 2022, published 2026):

Test system: bleomycin treated mice
Test: Bleomycin-induced pulmonary fibrosis in mice (survival, weight, BAL cells, lung collagen)
Assay type: in vivo, C57BL/6 mice
Method: The successful aspiration of bleomycin into the lungs was confirmed by listening for a crackling noise heard after the aspiration. 100 μl DMSO or 20 mg/kg RK33 in 100 μl DMSO was given to mice by intraperitoneal (IP) injection at day 10, 12, 14, 16, 18 and 20 after bleomycin treatment. Mice were weighed daily, and euthanized using CO2 following NIH guidelines at day 21 after bleomycin aspiration. The experiment was performed in accordance with the recommendations in the Guide for the Care and Use of Laboratory Animals of the National Institutes of Health. The Texas A&M University Animal Use and Care Committee approved the protocol.
The BALs were clarified by centrifugation at 500×g for 10 minutes, and the supernatants were transferred to Eppendorf tubes. The cells collected from BAL were counted, and BAL cytospins were prepared as described in Fibroblasts secrete Slit2 to inhibit fibrocyte differentiation and fibrosis, Proc Natl Acad Sci USA, 2014, 111: 18291-18296. BAL cytospins were fixed and treated with Wright-Giemsa stain (#08711, Polysciences, Inc., Warrington, PA) following Variation of differential cell counts of bronchoalveolar lavage fluid, Archives of pathology & laboratory medicine, 1986, 110(4): 341-343.
After collection of BAL fluid, mouse lungs were inflated with prewarmed Optimal Cutting Temperature (OCT) embedding medium (VWR, Radnor, PA) and then embedded in OCT, frozen on dry ice, and then stored at −80° C. 8-micron cryosections of mouse lungs were mounted on Superfrost Plus® microscope slides (VWR). The sections on the slides were allowed to air-dry for 24-48 hours. Total collagen on the mouse lung sections were stained with picrosirius red as described in Reduction of bleomycin-induced pulmonary fibrosis by serum amyloid P, J Immunol, 2007, 179: 4035-4044. Hydroxyproline in the mouse lung tissue was measured with a hydroxyproline assay as described in Attenuated pulmonary fibrosis in sialidase-3 knockout (Neu3−/−) mice, Am J Physiol Lung Cell Mol Physiol, 2020, 318(1): L165-L179.

[1] = 20 mg/kg IP, day 21 (FIGS. 6A-6B)

Substance: (diimidazo[4,5-d:4′,5′-f]-[1,3]diazepine) [RK33]
- survival rate (20 mg/kg IP at day 10, 12, 14, 16, 18 and 20, to day 21 (FIG. 3)): dramatically increased
- body weight recovery (20 mg/kg IP at day 10-20 every other day (FIG. 4)): improved
- total cell number in BAL (20 mg/kg IP, day 21 (FIG. 5A)): significantly blocked the bleomycin effect
- total collagen in lungs, hydroxyproline assay (20 mg/kg IP, day 21 (FIG. 7)): reduced the abnormally high levels of collagen
- difference between lung of bleomycin+RK33 treated mouse and control mouse, picrosirius red collagen [1]: no significant difference
- total collagen in lungs, picrosirius red staining [1]: reduced the abnormally high levels of collagen
- percentage of lymphocytes in BAL (20 mg/kg IP, day 21, Wright-Giemsa stain (FIG. 5B)): significantly blocked the bleomycin effect
